In US20110028471A1, “COMBINATION THERAPY 238” (ASTRAZENECA AB, priority 2008, published 2011):
Read-outs that look alike come from different tables or passages of the source.

Legend:
pS6 [1] = experiment: pharmacodynamic study, pS6 in U87MG xenograft tissue; settings: 4 days of treatment, 2 hrs after last dosing, Compound A 10 mg/kg, ZD6474 50 mg/kg
Protocol: A pharmacodynamic study evaluated biomarkers after 4 days of treatment. Animals were dosed with vehicle, ZD6474 (50 mg/kg), Compound A (10 mg/kg) or the combination daily. Compound A was dosed two hours before ZD6474 (or vehicle). Animals were culled and tumour xenograft tissue collected 2 hrs after the last dosing. […] In addition a two-way ANOVA test was performed to analyse the interaction between compounds in the combination group.

[2] = test system: Microvessel density (CD31 staining); experiment: microvessel density by CD31 immunohistochemistry, U87MG xenografts; format: in vivo, mice; settings: U87MG xenograft, 2 hours after 4 days of treatment; vehicle 59%; Compound A 10 mg/kg, ZD6474 50 mg/kg
Protocol: Microvessel density (MVD) was evaluated using CD31 staining by immuno-histochemistry 2 hours after 4 days of treatment. MVD values were 59% in vehicle-treated animals, reduced to 22% (p<0.05) after ZD6474, 50% (p=0.23) after Compound A, and 28% (p<0.05) after the combination (FIG. 8). There was no statistical interaction between compound A and ZD6474 in the combination-treated tumours (p=0.27).

pAKT [3] = experiment: pharmacodynamic study, pAKT in U87MG xenograft tissue; format: in vivo, mice; settings: 4 days of treatment, 2 hrs after last dosing, Compound A 10 mg/kg, ZD6474 50 mg/kg
U87MG xenografts = experiment: U87MG xenograft tumour growth, combination study; format: in vivo; settings: female athymic mice, oral gavage once daily, 7 days, Compound A 10 mg/kg/qd, ZD6474 50 mg/kg/qd, combination same doses, compared to control
Protocol: (§1) Human tumour xenografts were established in female athymic mice by injecting 2.3×10^6/0.1 ml U87MG cells subcutaneously in the left hand side flank. When mean tumour volume reached approximately 0.18 cm^3, the mice were randomized into control and treatment groups. The treatment groups received 50 mg/kg ZD6474 (vehicle 1% polysorbate 80 milled overnight) or 10 mg/kg COMPOUND A (30% captisol pH5) or a combination 50 mg/kg ZD6474 and 10 mg/kg COMPOUND A by oral gavage. When administered in combination, COMPOUND A was given 2 hours before the oral dose of ZD6474. The control group received both vehicles (same sequence as above), once daily by oral gavage. Tumor volumes (measured by calliper), animal body weight and tumor condition were recorded twice weekly for the duration of the study. Mice were humanely sacrificed by CO2 euthanasia. Tumour volumes were assessed using bilateral Vernier calliper measurement at least twice weekly and calculated using the formula (length×width)×√(length×width)×(π/6), where length was taken to be the longest diameter across the tumour and width the corresponding perpendicular. Growth inhibition from the start of treatment was assessed by comparison of the differences in tumor volume between control and treated groups. […] Statistical significance was evaluated using a one-tailed, two-sample t test. […]

cleaved caspase 3 [4] = experiment: cleaved caspase 3 immunohistochemistry, U87MG xenografts; format: in vivo, mice; settings: U87MG xenograft, 2 hours after 4 days of treatment; control 0.46%; Compound A 10 mg/kg, ZD6474 50 mg/kg
Protocol: The levels of cleaved caspase 3 (percentage of positive nuclei) were determined in tumour xenografts by immunohistochemistry 2 hours after 4 days of treatment.

[5] = body weight loss in U87MG study; format: in vivo, mice; settings: Compound A 10 mg/kg, ZD6474 50 mg/kg, range in brackets
Protocol: as §1

pS6 [6] = experiment: pharmacodynamic study, pS6 in A549 xenograft tissue; format: in vivo, mice; settings: 4 days of treatment, 2 hrs after last dosing, Compound A 20 mg/kg, AZD2171 3 mg/kg
Protocol: (§2) Compound A was dosed two hours before AZD2171 (or vehicle).

[7] = test system: Microvessel density (CD31 staining); experiment: microvessel density by CD31 immunohistochemistry, A549 xenografts; format: in vivo, mice; settings: A549 xenograft, 2 hours after 4 days of treatment; vehicle 26.6%; Compound A 20 mg/kg, AZD2171 3 mg/kg
Protocol: Microvessel density (MVD) was evaluated using CD31 staining by immunohistochemistry 2 hours after 4 days of treatment.

pAKT [8] = experiment: pharmacodynamic study, pAKT in A549 xenograft tissue; format: in vivo, mice; settings: 4 days of treatment, 2 hrs after last dosing, Compound A 20 mg/kg, AZD2171 3 mg/kg
Protocol: as §2
In the combination group, levels of pAKT were similar to those with Compound A to 58% (p<0.005) compared to control (FIG. 3).

[9] = body weight loss in A549 study; format: in vivo, mice; settings: Compound A 20 mg/kg, AZD2171 3 mg/kg, range in brackets
Protocol: When mean tumour volume reached approximately 0.27 cm^3, the mice were randomized into control and treatment groups. […] The control group received both vehicles alone (same sequence as above), once daily by oral gavage. Tumor volumes (measured by calliper), animal body weight and tumor condition were recorded twice weekly for the duration of the study. Mice were humanely sacrificed by CO2 euthanasia. Tumour volumes were assessed using bilateral Vernier calliper measurement at least twice weekly and calculated using the formula (length×width)×√(length×width)×(π/6), where length was taken to be the longest diameter across the tumour and width the corresponding perpendicular. Growth inhibition from the start of treatment was assessed by comparison of the differences in tumor volume between control and treated groups. Because the variance in mean tumor volume data increases proportionally with volume (and is therefore disproportionate between groups), data were log-transformed to remove any size dependency before statistical evaluation. Statistical significance was evaluated using a one-tailed, two-sample t test. […] A two-way ANOVA test was performed using the factors concentration of drug A and concentration of drug B. The data analyzed was Log(final tumor volume)−Log(initial tumor volume) calculated for each individual animal at the end of the study. […]

Calu-6 tumour xenograft = Calu-6 tumour xenograft in vivo solid tumour model; settings: once-daily oral, 28 days
A549 tumour xenografts = experiment: A549 xenograft tumour growth, combination study; format: in vivo, mice; settings: Compound A 20 mg/kg, AZD2171 3 mg/kg; for tumour growth inhibition: A549, female athymic mice, oral gavage once daily, 21 days, combination same doses, compared to control; for tumours smaller than at start of treatment: A549, individual tumour volumes at the end of the dosing period
Protocol: Human tumour xenografts were established in female athymic mice by injecting 5×10^6/0.1 ml A549a cells subcutaneously in the left hand side flank.
When mean tumour volume reached approximately 0.27 cm^3, the mice were randomized into control and treatment groups. […] The control group received both vehicles alone (same sequence as above), once daily by oral gavage. Tumor volumes (measured by calliper), animal body weight and tumor condition were recorded twice weekly for the duration of the study. Mice were humanely sacrificed by CO2 euthanasia. Tumour volumes were assessed using bilateral Vernier calliper measurement at least twice weekly and calculated using the formula (length×width)×√(length×width)×(π/6), where length was taken to be the longest diameter across the tumour and width the corresponding perpendicular. Growth inhibition from the start of treatment was assessed by comparison of the differences in tumor volume between control and treated groups. Because the variance in mean tumor volume data increases proportionally with volume (and is therefore disproportionate between groups), data were log-transformed to remove any size dependency before statistical evaluation. Statistical significance was evaluated using a one-tailed, two-sample t test. To analyze the data from the combination study, the statistical tool SigmaStat has been used. A two-way ANOVA test was performed using the factors concentration of drug A and concentration of drug B. The data analyzed was Log(final tumor volume)−Log(initial tumor volume) calculated for each individual animal at the end of the study. This tool is used to assess whether there is a main effect of drug A, a main effect of drug B plus a significant mechanistic interaction between the two compounds A and B (eg, one compound influences the effect of the other compound) which may be interpreted as antagonism, additivity or synergism. The statistical analysis was performed at the end of the dosing period (21 days).

NCI-H526 xenografts = experiment: NCI-H526 xenograft tumour growth, combination study; format: in vivo; settings: NCI-H526, nude mice, oral gavage; Compound A 20 mg/kg, AZD2171 3 mg/kg, combination same doses; compared with vehicle control
Protocol: Cells were grown in NCI-H526 (RPMI 10% FCS 1% Glutamine 10% Ml), and 1×10^7 cells were implanted into the flank of nude mice (NCI-H526 plus 50% matrigel).
When mean tumor size reached approx 0.2 cm^3, the mice were randomized into control and treatment groups. […] When administered in combination, COMPOUND A was given 2 hours […] the oral dose of the other compound. The control group received the (10% DMSO 90% propylene glycol) vehicle alone, once daily by oral gavage. Tumor volumes (measured by calliper), animal body weight and tumor condition were recorded twice weekly for the duration of the study. Mice were sacrificed by CO2 euthanasia. The tumor volume was calculated (taking length to be the longest diameter across the tumor and width to be the corresponding perpendicular diameter using the formula: (length×width)×√(length×width)×(π/6). Growth inhibition from the start of treatment was assessed by comparison of the differences in tumor volume between control and treated groups. Because the variance in mean tumor volume data increases proportionally with volume (and is therefore disproportionate between groups), data were log-transformed to remove any size dependency before statistical evaluation. Statistical significance was evaluated using a one-tailed, two-sample t test. To analyze the data from the combination study, the statistical tool SigmaStat has been used. […]

cleaved caspase 3 [10] = experiment: cleaved caspase 3 immunohistochemistry, A549 xenografts; format: in vivo, mice; settings: A549 xenograft, 2 hours after 4 days of treatment; control 0.94%; Compound A 20 mg/kg, AZD2171 3 mg/kg
Protocol: Compound A was dosed two hours before AZD2171 (or vehicle). […] The levels of cleaved caspase 3 (percentage of positive nuclei) were determined in tumour xenografts by immunohistochemistry 2 hours after 4 days of treatment.

[11] = target: stem cell factor receptor tyrosine kinase (SCF RTK, commonly known as c-Kit) (Homo sapiens, UniProt P10721); experiment: inhibition of c-Kit
Chain of stem cell factor receptor tyrosine kinase (SCF RTK, commonly known as c-Kit) (P10721 26-976): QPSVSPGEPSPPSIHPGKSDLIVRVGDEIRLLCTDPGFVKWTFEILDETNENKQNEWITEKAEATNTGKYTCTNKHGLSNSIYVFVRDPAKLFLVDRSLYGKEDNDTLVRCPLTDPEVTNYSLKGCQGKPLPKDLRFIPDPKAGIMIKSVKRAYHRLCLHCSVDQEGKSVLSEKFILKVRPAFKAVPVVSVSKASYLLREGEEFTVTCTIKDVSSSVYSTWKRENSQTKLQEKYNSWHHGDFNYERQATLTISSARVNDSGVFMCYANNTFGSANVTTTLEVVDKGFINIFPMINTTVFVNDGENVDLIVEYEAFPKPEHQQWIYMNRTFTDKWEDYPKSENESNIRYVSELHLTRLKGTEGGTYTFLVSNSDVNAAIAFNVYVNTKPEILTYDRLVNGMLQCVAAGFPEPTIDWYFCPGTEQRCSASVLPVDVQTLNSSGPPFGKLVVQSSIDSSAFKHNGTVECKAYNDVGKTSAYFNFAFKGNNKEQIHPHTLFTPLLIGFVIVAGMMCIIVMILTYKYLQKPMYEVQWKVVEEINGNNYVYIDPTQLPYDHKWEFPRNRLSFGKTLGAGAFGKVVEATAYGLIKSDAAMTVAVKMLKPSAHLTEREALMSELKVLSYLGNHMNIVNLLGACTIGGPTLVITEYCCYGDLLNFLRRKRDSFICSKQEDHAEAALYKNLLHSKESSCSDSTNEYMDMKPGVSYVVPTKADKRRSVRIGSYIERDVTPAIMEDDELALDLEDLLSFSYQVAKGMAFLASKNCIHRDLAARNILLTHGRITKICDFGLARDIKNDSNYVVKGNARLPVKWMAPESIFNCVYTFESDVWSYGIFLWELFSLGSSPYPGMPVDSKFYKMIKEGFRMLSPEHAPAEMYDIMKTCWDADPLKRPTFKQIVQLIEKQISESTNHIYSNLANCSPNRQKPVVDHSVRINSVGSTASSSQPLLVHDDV

HUVEC = HUVEC assay, endothelial cell proliferation; format: cell-based; settings: Homo sapiens

| inhibition of c-Kit [11] | Compound | levels of pS6 (normalised to total) compared to control (pS6 [1]) [%] | MVD values [2] [%] | levels of pAKT (normalised to total) compared to control (pAKT [3]) [%] | tumour growth inhibition (U87MG xenografts) [%] | CC3 values (percentage of positive nuclei) (cleaved caspase 3 [4]) [%] | maximum body weight loss [5] [%] | levels of pS6 (normalised to total) compared to control (pS6 [6]) [%] | MVD values [7] [%] | levels of pAKT (normalised to total) compared to control (pAKT [8]) [%] | maximum body weight loss [9] [%] | inhibition of growth of Calu-6 tumour xenograft (Calu-6 tumour xenograft; 1.5 mg/kg/day) [%] | inhibition of growth of Calu-6 tumour xenograft (Calu-6 tumour xenograft; 3 mg/kg/day) [%] | inhibition of growth of Calu-6 tumour xenograft (Calu-6 tumour xenograft; 6 mg/kg/day) [%] | tumour growth inhibition (A549 tumour xenografts) [%] | tumours smaller than at start of treatment (A549 tumour xenografts) | reduction in geometric mean delta tumour volume (NCI-H526 xenografts) [%] | CC3 values (percentage of positive nuclei) (cleaved caspase 3 [10]) [%] | IC50 (HUVEC; HUVEC assay, VEGF-stimulated, read-out: IC50, VEGF-stimulated endothelial cell proliferation) [pM] | IC50 (HUVEC; HUVEC, basal (no VEGF stimulation), read-out: IC50, basal endothelial cell proliferation) [pM] |
| --- | --- | --- | --- | --- | --- | --- | --- | --- | --- | --- | --- | --- | --- | --- | --- | --- | --- | --- | --- | --- |
|  | COc1cc2c(Nc3ccc(Br)cc3F)ncnc2cc1OCC1CCN(C)CC1 [ZD6474, 4-(4-bromo-2-fluoroanilino)-6-methoxy-7-(1-methylpiperidin-4-ylmethoxy)quinazoline] | 108 | 22 | 87 | −14.6 | 0.73 | 3.77 |  |  |  |  |  |  |  |  |  |  |  |  |  |
| inhibits c-Kit | COc1cc2c(Oc3ccc4[nH]c(C)cc4c3F)ncnc2cc1OCCCN1CCCC1 [AZD2171, 4-(4-fluoro-2-methyl-1H-indol-5-yloxy)-6-methoxy-7-(3-(pyrrolidin-1-yl)propoxy)quinazoline] |  |  |  |  |  |  | 126 | 7.75 | 95 | 2.52 | 49 | 69 | 91 | 81.6 | tumour volumes were greater than at start of the treatment | 64 | 0.43 | 400 ± 200 | > 500000 |
|  | COc1ccc(-c2ccc3c(N4CCOC[C@@H]4C)nc(N4CCOC[C@@H]4C)nc3n2)cc1CO [Compound A, [5-[2,4-bis[(3S)-3-methylmorpholin-4-yl]pyrido[5,6-e]pyrimidin-7-yl]-2-methoxyphenyl]methanol] | 55 | 50 | 37 | 28.4 | 1.64 | 0.44 | 37 | 19.39 | 48 | 3.45 |  |  |  | 99.3 | 4 out of 10 | 38 | 1.98 |  |  |
